Experiments:
[1] = system: THP-1 cell-derived macrophage; assay: Cholesterol ester accumulation-inhibitory activity (THP-1 cell-derived macrophage foam cell formation); format: cell-based; conditions: THP-1 macrophage, acetyl LDL, 3 days
Experimental: THP-1 cells (DAINIPPON PHARMACEUTICAL CO., LTD.) were subcultured in RPMI-1640 medium containing 10% fetal calf serum (FBS), and cells at 6-13th passage after purchase were used. The cells were suspended in FBS-containing RPMI-1640 medium to give a suspension having a concentration of 4×10^5 cells/mL. The cell suspension was seeded on 12-well microplate by 1 mL, and treated with phorbol 12-myristate 13-acetate (PMA, 200 nM) as a differentiation inducer into macrophage. Then, acetyl LDL (400 μg/mL) separately prepared from LDL derived from plasma of a rabbit with genetic hyperlipidemia (KHC rabbit, Japan Laboratory Animals Inc.) was added. A test compound further dissolved in dimethyl sulfoxide (DMSO) and diluted with FBS-containing RPMI-1640 medium and a control solvent were applied. After cultivation in a carbon dioxide incubator for 3 days, the cells were washed with phosphate-buffered saline (pH 7.0), and the lipid was extracted with hexane-isopropanol (3:2). In addition, the cells were lysed with 1N-NaOH, and the protein content was measured. Free cholesterol and cholesterol ester in the lipid extraction sample were measured according to the method of Kunitomo et al. [Japan. J. Pharmacol., 34, 153-158 (1984)]. Cholesterol esters in the control cells and the cells treated with the test compound were compared, and the cholesterol ester accumulation inhibitory rate of the test compound was calculated.

[2] = system: cholesterol secretion from the liver; assay: Mouse liver lipid secretion-inhibitory activity (Triton WR-1339 method); format: in vivo, Slc: ICR mice; conditions: (10 mg)/kg orally; 3 hr after Triton WR-1339; mice
Experimental: About 5-week-old male Slc: ICR mice (Japanese SLC) were preliminarily bred for 1 week by feeding only in the daytime (9:00-18:00). During this period, the mice were-allowed to freely take tap water even during night. The mice were divided into a control group and a test compound group (6 mice per group) so that the average and standard deviation of the body weight would be almost the same. Blood (about 80 μL) was drawn from the orbital venous plexus under anesthesia using a glass capillary, and a test compound solution (10 mL/kg) obtained by previously suspending the compound in 5% gum arabic solution at 30 min after the blood sampling was orally administered. At 30 min after the administration, Triton WR-1339 (60 mg/mL) solution previously prepared with physiological saline was administered from the tail vein at a dose of 5 mL/kg. Blood was drawn again from the orbital venous plexus at 3 hr after the administration of Triton WR-1339. Plasma was separated from the blood taken and the total plasma cholesterol (TC) was measured using a commercially available measurement kit (Wako Pure Chemical Industries, Ltd.). The changes in the blood concentration over 3 hr after the Triton WR-1339 administration were calculated and taken as the cholesterol secretion rate from the liver. The secretion rates were compared between the control group and the test compound group, and the cholesterol secretion inhibitory rate by the test compound was calculated.

[3] = Stable radical elimination action (DPPH); conditions: 0.1 mM DPPH, room temperature 20 min (Examples 69, 72 and 73)
Experimental: 0.1 mM Diphenyl-2-picrylhydrazyl (DPPH) acetonitrile (CH3CN) solution (3 mL) was placed in a glass test tube, and a DMSO solution of a test compound was added at a 1% dose (30 μL). As a control, 0.1 mM DPPH CH3CN solution (3 mL) containing DMSO (30 μL) was used and for a blank test, CH3CN (3 mL) containing DMSO (30 μL) was used. After standing the solutions at room temperature for 60 min (20 min for Examples 69, 72 and 73), the absorbance at 517 nm was measured by a spectrophotometer. A stable radical inhibitory rate when control was 100% was calculated from [(absorbance of test substance−absorbance of blank test)÷(absorbance of control−absorbance of blank test)].

liver ACAT = assay: ACAT inhibitory activity (rabbit liver microsome, cholesteryl oleate production); format: biochemical, Japanese white rabbits; conditions: 37° C. for 20 min
Experimental: Male Japanese white rabbits (body weight 2-2.5 kg) were bred on 100 g of a high cholesterol feed (feed added with cholesterol 1%, CLEA Japan, Inc.) daily for 4 weeks and sacrificed by exsanguination under anesthesia. The liver was removed, homogenated and centrifuged at 10,000 rpm and 4° C. for 15 min. The obtained supernatant was further centrifuged at 41,000 rpm and 4° C. for 60 min to give a microsome fraction. To a 0.15 M phosphate buffer were added the microsome suspension as an enzyme specimen, dimethyl sulfoxide (DMSO) or a solution (3 μL) of a test compound in DMSO and [1-14C]-oleoyl-CoA to be a reaction substrate to the total amount of 300 μL. After incubation at 37° C. for 20 min, a mixed solution of chloroform-methanol was added to quench the reaction. Water was added thereto and mixed, and the chloroform layer was separated. The solvent was evaporated to dryness and the residue was redissolved in n-hexane. The resulting solution was subjected to thin layer chromatography using a silica gel plate. The spot of cholesteryl oleate on the silica gel plate was scraped and quantified on a liquid scintillation counter. The ACAT inhibitory activity of the test compound is shown in cholesteryl oleate production inhibitory rate (%) [level of inhibition of cholesteryl oleate production as compared to the control].

[4] = Oral administration experiment (plasma concentration); format: in vivo; conditions: (10 mg)/kg orally, male SD rats, plasma 0.5-6 hr
Experimental: The test compound (10 mg)/kg suspended in 5% gum arabic solution was forcedly administered orally to male SD rats (body weight 200-250 g). At 0.5, 1, 2, 4, 6 hr after administration, blood was drawn without anesthesia, and heparin plasma was separated by a conventional method. The concentration of the test compound in the plasma was measured by high performance liquid chromatography.

Row | maximum blood concentration [4] [µg/mL] | SMILES | cholesteryl ester accumulation inhibitory rate (%) (concentration: 10^−6 M) [1] | Cholesterol secretion inhibitory rate (%) (10 mg)/kg/3 hr [2] | inhibitory rate (%) (10^−4M), stable radical [3] | liver ACAT inhibition rate (%) (concentration: 10^−6 M) (liver ACAT)
1 | – | CCC(C)(C)C(=O)N1Cc2cc(N(C)C)ccc2C[C@H]1C(=O)Nc1cc(C)c(O)c(C)c1C.Cl [Example 69, 7-dimethylamino-2-(2,2-dimethylbutyryl)-N-(4-hydroxy-2,3,5-trimethylphenyl)-1,2,3,4-tetrahydroisoquinoline-(3S)-carboxamide hydrochloride] | 99.4 | 31.4 | 97.0 | –
2 | – | C/C=C/C=C/C(=O)N1Cc2cc(N(C)C)ccc2C[C@H]1C(=O)Nc1cc(C)c(O)c(C)c1C.Cl [Example 70, 7-dimethylamino-2-[(2E,4E)-hexadienoyl]-N-(4-hydroxy-2,3,5-trimethylphenyl)-1,2,3,4-tetrahydroisoquinoline-(3S)-carboxamide hydrochloride] | – | 23.0 | – | –
3 | 0.55 | Cc1cc(NC(=O)[C@@H]2Cc3ccc(N(C)C)cc3CN2C(=O)C(C)(C)C)c(C)c(C)c1O.Cl [Example 73, 7-dimethylamino-2-(2,2-dimethylpropionyl)-N-(4-hydroxy-2,3,5-trimethylphenyl)-1,2,3,4-tetrahydroisoquinoline-(3S)-carboxamide hydrochloride] | 91.8 | 32.9 | 97.0 | 97.7
